In PubChem BioAssay AID651685 (The Scripps Research Institute Molecular Screening Center, 2012):
Activity calls are given as the source filed them. The rule behind the calls is not given here.

Biological target: Mu-type opioid receptor (Homo sapiens) (UniProt P35372)
Assay: mu-delta opioid heterodimer formation enhancers – cell-based, luminescence, dose response, late-stage follow-up (AID 651685)
Conditions: cells, OPRM1-OPRD1 heterodimerization, luminescence complementation

Chain of Mu-type opioid receptor (Homo sapiens) (P35372 whole entry, looked up): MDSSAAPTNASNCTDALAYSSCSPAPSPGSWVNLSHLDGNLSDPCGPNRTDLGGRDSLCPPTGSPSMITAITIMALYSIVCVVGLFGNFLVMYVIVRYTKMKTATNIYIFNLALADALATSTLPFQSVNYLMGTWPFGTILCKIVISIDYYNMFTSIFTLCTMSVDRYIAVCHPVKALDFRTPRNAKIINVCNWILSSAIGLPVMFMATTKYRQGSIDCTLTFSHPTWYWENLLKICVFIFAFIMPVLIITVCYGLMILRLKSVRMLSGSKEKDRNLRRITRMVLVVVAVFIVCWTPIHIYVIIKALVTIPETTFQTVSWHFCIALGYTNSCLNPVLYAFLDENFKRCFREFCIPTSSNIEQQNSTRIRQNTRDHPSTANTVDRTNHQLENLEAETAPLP

Compound	EC50
CCOC(=O)C1(Cc2ccccc2)CCN(Cc2cccn2-c2nccs2)CC1	> 40 µM (inactive)
CCOC(=O)C1(CCCc2ccccc2)CCN(Cc2cnn(C)c2)CC1	8.9 µM
CCOC(=O)C1(CCOc2ccccc2)CCN(Cc2cccn2-c2cccnc2)CC1	4.4 µM
OCC1(CCc2ccccc2)CCN(Cc2cc(F)ccc2-n2cccn2)CC1	> 40 µM (inactive)
CCOC(=O)C1(CCc2ccccc2)CCN(Cc2ccc(NC(C)=O)cc2)CC1	0.403 µM
CCOC(=O)C1(CCc2ccccc2)CCN(Cc2cc(C)cc(C)c2)CC1	> 40 µM (inactive)
CCOC(=O)C1(CCc2ccccc2)CCN(Cc2ccc(OC(C)C)c(C#N)c2)CC1	> 40 µM (inactive)
CCOC(=O)C1(CCc2ccccc2)CCN(Cc2ccccc2C)CC1	7 µM
CCOC(=O)C1(CC2CCCCO2)CCN(Cc2c(C)cc(C)cc2-n2cccn2)CC1 (stereo unspecified)	0.901 µM
CCOC(=O)C1(Cc2ccccc2)CCN(Cc2cccn2-c2cccnc2)CC1	> 40 µM (inactive)
CCOC(=O)C1(CCOc2ccccc2)CCN(Cc2ccc(O)c(OC)c2)CC1	inactive
